From patent US20180360710A1, “Sodium Zinc Alginate Structurant And Methods For Making And Using the Same” (Colgate-Palmolive Company, priority 2015, published 2018)

Row | SMILES | Total Zinc Conc. (at use level in formula) [%] | Solubility (g/100 g H2O, 25° C.) (25° C.) [g/100 g H2O] | Calculated Soluble Zinc (at use level in formula) [%]
1 | [O]=[Zn] [ZnO, zinc oxide] | 0.80 |  | 
2 | [Cl-].[Cl-].[Zn+2] [ZnCl2, zinc chloride] | 0.72 | 408 | 0.72
